Assay results taken from US6372209B1, “Vaginal lactobacillus medicant” (Gyne Logix, Inc., priority 1997, dated 2002).
Read-outs that look alike come from different tables or passages of the source.

Columns and labels:
[1] = test system: women with recurrent bacterial vaginosis; details: for Percentage Women Colonized with H2O2-producing Lactobacilli / Women Colonized with H2O2-producing Lactobacilli, number: n = 15
Procedure: In this study, a group of women with recurrent bacterial vaginosis (BV) was treated with 2% Clindamycin cream, once daily for three days, followed by Lactobacillus suppositories containing the Lactobacillus crispatus CTV-05 strain twice daily for three days. A group of women from the same clinic with recurrent bacterial vaginosis treated with Clindamycin cream alone were included for comparison. […] The patients were evaluated for vaginal presence of H2O2-producing Lactobacilli, and the absence of bacterial vaginosis infection.

[2] = test system: Candida albicans ATCC 60193 (cervical isolate); assay: Agar overlay zone of inhibition of yeast growth; type: cell-based; details: Organism Growth Time Period 48 hours
Procedure: MRS agar was allowed to harden at a 5 mm slant. Lactobacillus crispatus CTV-05 was streaked across the diameter of the plate and was grown for 24, 48 or 72 hours under both anaerobic and ambient atmospheres. Control strains of Lactobacillus jensenii CTV-01, Lactobacillus crispatus CTV-02, Lactobacillus crispatus CTV-03, and Lactobacillus crispatus CTV-04 were grown in the same way. The plates were overlayed with YM agar with 10 mM CNNaS (sodium thiocyanate, previously reported to be an inhibitor of yeast growth) or without CNNaS. The agar overlays were inoculated with one of two strains of Candida albicans ATCC 60193 (cervical isolate) or Candida albicans ATCC 14053 (human blood isolate). Zones of inhibition were measured. […] Therefore, Lactobacillus crispatus CTV-05 inhibits yeast growth in vitro.

Molecule: CCC[C@@H]1C[C@@H](C(=O)N[C@@H]([C@H]2O[C@H](SC)[C@H](O)[C@@H](O)[C@H]2O)[C@H](C)Cl)N(C)C1 [Clindamycin]
- Percentage Women Colonized with H2O2-producing Lactobacilli ([1]; Enrollment): 33%
- Women Colonized with H2O2-producing Lactobacilli, number ([1]; Enrollment): 5
- Percentage Women Free of Bacterial Vaginosis ([1]; One month post treatment): 53%
- Percentage Women Colonized with H2O2-producing Lactobacilli ([1]; One month post treatment): 40%
- Women Colonized with H2O2-producing Lactobacilli, number ([1]; One month post treatment): 6
- Percentage Women Free of Bacterial Vaginosis ([1]; One week post treatment): 87%
- Percentage Women Colonized with H2O2-producing Lactobacilli ([1]; One week post treatment): 7%
- Women Colonized with H2O2-producing Lactobacilli, number ([1]; One week post treatment): 1
- Percentage Women Free of Bacterial Vaginosis ([1]; Three months post treatment): 26%
- Percentage Women Colonized with H2O2-producing Lactobacilli ([1]; Three months post treatment): 33%
- Women Colonized with H2O2-producing Lactobacilli, number ([1]; Three months post treatment): 5

Molecule: Lactobacillus crispatus CTV-02 [reference compound]
- Zone of Inhibition (in millimeters) [2]: 3 to 0 mm

Molecule: Lactobacillus crispatus CTV-03 [reference compound]
- Zone of Inhibition (in millimeters) [2]: slight inhibition

Molecule: Lactobacillus crispatus CTV-04 [reference compound]
- Zone of Inhibition (in millimeters) [2]: 5 to 2 mm

Molecule: Lactobacillus jensenii CTV-01 [reference compound]
- Zone of Inhibition (in millimeters) [2]: 1 to 0 mm
